Data: ChEMBL document CHEMBL1201862, “PubChem BioAssay data set” (2004)
Activity calls are given as the source filed them.

Key:
Keap1/Nrf2 = Keap1/Nrf2 (Homo sapiens, UniProt Q14145); assay: disruptors of Keap1 binding to Nrf2 peptide – biochemical, fluorescence polarization, cherry-picked samples, dose response (AID 588683)
[1] = Luminescence Cell-Based Dose Confirmation HTS to Identify Activators of 5'UTR Stem-Loop Driven Alpha-Synuclein mRNA Translation in H4 Neuroglioblastoma Cells. [Related pubchem assays: 1829 (Project Summary), 1814 (Primary HTS)]; format: functional
[2] = target: T1, Corticotropin-releasing factor receptor 2/Corticotropin-releasing factor-binding protein (Homo sapiens, UniProt P24387+Q13324); assay: activators of CRF receptor 2 with binding protein – uHTS hits, confirmation (AID 602473); format: functional; settings: read-out: EC50_Mean
T1 sequence (Q13324 whole entry): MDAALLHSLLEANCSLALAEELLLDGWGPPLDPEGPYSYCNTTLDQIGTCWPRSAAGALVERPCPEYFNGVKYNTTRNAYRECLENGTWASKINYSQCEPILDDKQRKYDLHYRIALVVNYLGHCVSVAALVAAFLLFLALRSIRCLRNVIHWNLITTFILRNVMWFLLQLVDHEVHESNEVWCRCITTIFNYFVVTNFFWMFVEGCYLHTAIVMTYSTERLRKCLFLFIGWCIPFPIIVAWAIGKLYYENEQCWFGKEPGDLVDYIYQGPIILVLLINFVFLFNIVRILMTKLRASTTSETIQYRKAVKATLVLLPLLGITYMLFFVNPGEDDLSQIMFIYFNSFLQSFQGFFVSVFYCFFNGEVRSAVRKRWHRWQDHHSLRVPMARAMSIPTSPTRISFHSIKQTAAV
T1 sequence (P24387 whole entry): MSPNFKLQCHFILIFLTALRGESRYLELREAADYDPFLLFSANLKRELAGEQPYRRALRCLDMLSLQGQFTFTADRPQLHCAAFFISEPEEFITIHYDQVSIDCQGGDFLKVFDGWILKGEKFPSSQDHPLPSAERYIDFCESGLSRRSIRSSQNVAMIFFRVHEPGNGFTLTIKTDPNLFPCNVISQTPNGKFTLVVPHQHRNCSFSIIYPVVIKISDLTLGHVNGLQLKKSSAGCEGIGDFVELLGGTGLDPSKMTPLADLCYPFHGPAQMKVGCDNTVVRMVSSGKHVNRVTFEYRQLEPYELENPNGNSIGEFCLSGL

H4 = assay: Luminescence Cell-Based Dose Response HTS to Identify Activators of 5'UTR Stem-Loop Driven Prion Protein mRNA Translation in H4 Neuroglioblastoma Cells. [Related pubchem assays: 1829 (Project Summary), 1814 (Primary HTS)]; format: functional; settings: Homo sapiens
[3] = Luminescence Cell-Based Dose Response HTS to Identify Activators of Luciferase Translation or Activity in H4 […] Cells. [Related pubchem assays: 1829 (Project Summary), 1814 (Primary HTS)]; format: functional
[4] = target: T2, Type-1 angiotensin II receptor (Homo sapiens, UniProt P30556); assay: antagonism of angiotensin II type 1 receptor – cell-based, uHTS hits, selectivity assay for APJ receptor antagonist project, dose response (AID 463214); format: functional;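 further: antagonist potency against angiotensin II stimulated AT1 response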
T2 sequence (P30556 whole entry): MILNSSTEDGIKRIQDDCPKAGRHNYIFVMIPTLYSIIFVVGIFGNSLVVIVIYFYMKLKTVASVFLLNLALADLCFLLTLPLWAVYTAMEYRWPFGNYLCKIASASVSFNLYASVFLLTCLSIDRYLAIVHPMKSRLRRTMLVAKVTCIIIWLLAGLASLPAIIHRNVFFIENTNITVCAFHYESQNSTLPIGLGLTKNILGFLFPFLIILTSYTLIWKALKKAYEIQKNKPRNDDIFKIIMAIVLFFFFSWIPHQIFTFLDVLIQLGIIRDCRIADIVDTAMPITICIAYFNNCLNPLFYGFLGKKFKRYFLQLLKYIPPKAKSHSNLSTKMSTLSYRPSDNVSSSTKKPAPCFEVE

BJ [5] = assay: BJ-TERT-LT-ST fibroblast viability loss – cell-based, RAS-independent, luminescence, dose response (AID 1935); format: functional; settings: Homo sapiens;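 further: BJ fibroblasts immortalized with TERT plus LT and ST oncogenes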
[6] = target: T3, Kappa-type opioid receptor (Homo sapiens, UniProt P41145); format: functional
[7] = Luminescence Cell-Based Dose Response HTS to Identify Inhibitors of 5'UTR Stem-Loop Driven Prion Protein mRNA Translation in H4 Neuroglioblastoma Cells. [Related pubchem assays: 1827 (Project Summary), 1813 (Primary HTS)]; format: functional
[8] = general cell-killing toxicity readout – plate reader, dry powder samples, cytotoxicity control for PAX8 inhibitor project, dose response (AID 743021); format: functional, cell-based
BJ [9] = assay: cells; format: functional, cell-based; settings: Homo sapiens
Beta-galactosidase [10] = target: T4, Beta-galactosidase (Escherichia coli, UniProt Q8VNN2); assay: PubChem AID 485352; format: functional
[11] = luciferase reporter signal suppression in cells – H4 neuroglioma cells, luminescence, dose response (AID 1990); format: functional, cell-based
[12] = target: T3, Kappa-type opioid receptor; format: functional; remark: listed apart in the source
Protein RecA = target: T5, Protein RecA (Mycobacterium tuberculosis, UniProt P9WHJ3); assay: Fluorescence Cell-Free Homogeneous Dose Retest to Identify Inhibitors of RecA-Intein Splicing Activity. [Related pubchem assays (depositor defined):AID2097, AID2223, AID489010, AID492950]; format: functional
T5 sequence (P9WHJ3 whole entry): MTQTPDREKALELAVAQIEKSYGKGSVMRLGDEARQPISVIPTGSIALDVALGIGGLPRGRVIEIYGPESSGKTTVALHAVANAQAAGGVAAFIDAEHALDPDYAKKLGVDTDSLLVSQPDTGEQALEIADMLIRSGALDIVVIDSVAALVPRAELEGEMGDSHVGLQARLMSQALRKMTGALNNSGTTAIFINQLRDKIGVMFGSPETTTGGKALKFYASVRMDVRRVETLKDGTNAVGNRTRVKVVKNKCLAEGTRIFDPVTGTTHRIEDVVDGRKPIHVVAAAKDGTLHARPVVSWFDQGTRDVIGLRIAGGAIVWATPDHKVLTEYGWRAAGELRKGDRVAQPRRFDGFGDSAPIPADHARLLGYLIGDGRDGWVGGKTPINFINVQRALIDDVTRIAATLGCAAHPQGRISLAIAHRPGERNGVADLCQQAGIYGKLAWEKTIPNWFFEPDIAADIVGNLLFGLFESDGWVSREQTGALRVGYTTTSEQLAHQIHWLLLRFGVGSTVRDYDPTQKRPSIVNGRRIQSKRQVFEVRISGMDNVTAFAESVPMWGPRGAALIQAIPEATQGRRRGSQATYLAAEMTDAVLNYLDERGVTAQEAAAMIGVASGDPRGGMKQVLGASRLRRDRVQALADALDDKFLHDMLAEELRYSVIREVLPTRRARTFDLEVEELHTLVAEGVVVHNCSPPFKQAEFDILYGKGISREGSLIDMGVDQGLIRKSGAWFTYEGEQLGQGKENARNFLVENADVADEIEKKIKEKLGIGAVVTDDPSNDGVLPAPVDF

INS1 = assay: INS-1E survival protection against cytokine death – cell-based, luminescence, retest, dose response (AID 449756); format: functional; settings: Rattus norvegicus;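 further: cell death triggered by IL-1 beta plus TNF-alpha plus IFN-gamma mixture; protective hits raise ATP signal compared with cytokine alone wells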
[13] = alpha-synuclein stem-loop luciferase translation blockers – H4 neuroglioma cells, luminescence, confirmation (AID 1988); format: functional, cell-based
[14] = loss of viability in HepG2 cells – cell-based, CellTiter-Glo, cherry-picked, cytotoxicity control for Shn3 inhibitor project, dose response (AID 624134); format: functional
BJ [15] = assay: BJ-TERT fibroblast viability loss – cell-based, RAS-independent, luminescence, dose response (AID 1933); format: functional; settings: Homo sapiens
[16] = non-specific 3'UTR reporter inhibition in Clone20-Shn3RL – cell-based, Renilla luciferase, cherry-picked, counter-screen for Shn3 inhibitor project, dose response (AID 624133); format: functional
[17] = target: T6, Replicative DNA helicase DnaB (Mycobacterium tuberculosis, UniProt P9WMR3); assay: DnaB intein splicing inhibitors, dose response, biochemical, cell-free fluorescence (AID 449749); format: functional
T6 sequence (P9WMR3 whole entry): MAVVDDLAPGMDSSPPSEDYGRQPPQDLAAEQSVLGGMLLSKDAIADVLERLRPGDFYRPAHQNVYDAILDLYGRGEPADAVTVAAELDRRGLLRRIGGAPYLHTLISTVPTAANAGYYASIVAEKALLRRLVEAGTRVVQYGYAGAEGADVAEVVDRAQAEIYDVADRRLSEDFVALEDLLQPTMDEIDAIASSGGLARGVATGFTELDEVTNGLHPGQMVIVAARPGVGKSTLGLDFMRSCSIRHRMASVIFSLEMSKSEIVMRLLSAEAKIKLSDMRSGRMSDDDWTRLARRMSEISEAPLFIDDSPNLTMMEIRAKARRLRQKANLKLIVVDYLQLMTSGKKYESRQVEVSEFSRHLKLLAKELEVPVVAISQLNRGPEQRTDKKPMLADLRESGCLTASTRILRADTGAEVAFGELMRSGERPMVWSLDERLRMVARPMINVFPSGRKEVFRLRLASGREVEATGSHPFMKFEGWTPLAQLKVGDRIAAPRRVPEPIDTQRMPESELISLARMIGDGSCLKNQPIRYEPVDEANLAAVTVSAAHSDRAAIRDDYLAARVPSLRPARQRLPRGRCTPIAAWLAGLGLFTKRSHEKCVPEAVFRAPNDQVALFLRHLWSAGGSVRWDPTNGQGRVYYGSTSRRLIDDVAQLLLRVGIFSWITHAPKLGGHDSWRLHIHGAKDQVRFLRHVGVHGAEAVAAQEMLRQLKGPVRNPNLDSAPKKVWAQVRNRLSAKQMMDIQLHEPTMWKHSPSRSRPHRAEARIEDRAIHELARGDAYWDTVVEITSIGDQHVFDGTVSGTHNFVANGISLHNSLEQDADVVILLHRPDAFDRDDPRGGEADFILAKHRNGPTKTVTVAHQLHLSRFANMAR

[18] = THP-1 cell cytotoxicity, dose response, cytotoxicity control for non-replicating M. tuberculosis project (AID 489025); format: functional
[19] = DRD fibroblast viability loss – cell-based, non-viral oncogenic, luminescence, dose response (AID 1934); format: functional; settings: Homo sapiens
[20] = HEK-293T viability loss after treatment – luminescence, T-cell screen hits, cytotoxicity control for TCR NF-kB inhibitor project, dose response (AID 489026); format: functional, cell-based;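 further: cells exposed to compound about 14 hours before the viability readout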
cells = format: functional
Mu-type opioid receptor = Mu-type opioid receptor (Homo sapiens, UniProt P35372); assay: HTS Image-Based Screen for Agonists of the MOR Receptor. [Related pubchem assays (depositor defined):AID1777, AID1785, AID1786, AID2133]; format: functional;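 further: imaging of beta-arrestin GFP recruitment into spots after receptor activation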
Beta-galactosidase [21] = target: T4, Beta-galactosidase; format: functional
Paired box protein Pax-8 = Paired box protein Pax-8 (Homo sapiens, UniProt Q06710); assay: PAX8 transcriptional activity inhibition in RMG-I – RMG-I cells, luciferase, cherry-pick, dose response (AID 687027); format: functional, cell-based;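 further: luciferase reporter driven by Pax8 target thyroperoxidase promoter measured by SteadyGlo luminescence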
[22] = target: T7, Delta-type opioid receptor (Homo sapiens, UniProt P41143); assay: HTS Image-Based Screen for Antagonists of the DOR Receptor. [Related pubchem assays (depositor defined):AID1777, AID1785, AID1786, AID2133]; format: functional
[23] = target: T7, Delta-type opioid receptor; assay: HTS Image-Based Screen for Agonists of the DOR Receptor. [Related pubchem assays (depositor defined):AID1777, AID1786, AID2133]; format: functional
[24] = reduction of Shn3 3'UTR-driven luciferase in osteoblasts – cell-based, Clone20 osteoblasts, firefly luciferase, cherry-picked, dose response (AID 624132); format: functional;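 further: firefly luciferase luminescence from reporter carrying the Shn3 3'UTR in osteoblasts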

T4 sequence (Q8VNN2 whole entry): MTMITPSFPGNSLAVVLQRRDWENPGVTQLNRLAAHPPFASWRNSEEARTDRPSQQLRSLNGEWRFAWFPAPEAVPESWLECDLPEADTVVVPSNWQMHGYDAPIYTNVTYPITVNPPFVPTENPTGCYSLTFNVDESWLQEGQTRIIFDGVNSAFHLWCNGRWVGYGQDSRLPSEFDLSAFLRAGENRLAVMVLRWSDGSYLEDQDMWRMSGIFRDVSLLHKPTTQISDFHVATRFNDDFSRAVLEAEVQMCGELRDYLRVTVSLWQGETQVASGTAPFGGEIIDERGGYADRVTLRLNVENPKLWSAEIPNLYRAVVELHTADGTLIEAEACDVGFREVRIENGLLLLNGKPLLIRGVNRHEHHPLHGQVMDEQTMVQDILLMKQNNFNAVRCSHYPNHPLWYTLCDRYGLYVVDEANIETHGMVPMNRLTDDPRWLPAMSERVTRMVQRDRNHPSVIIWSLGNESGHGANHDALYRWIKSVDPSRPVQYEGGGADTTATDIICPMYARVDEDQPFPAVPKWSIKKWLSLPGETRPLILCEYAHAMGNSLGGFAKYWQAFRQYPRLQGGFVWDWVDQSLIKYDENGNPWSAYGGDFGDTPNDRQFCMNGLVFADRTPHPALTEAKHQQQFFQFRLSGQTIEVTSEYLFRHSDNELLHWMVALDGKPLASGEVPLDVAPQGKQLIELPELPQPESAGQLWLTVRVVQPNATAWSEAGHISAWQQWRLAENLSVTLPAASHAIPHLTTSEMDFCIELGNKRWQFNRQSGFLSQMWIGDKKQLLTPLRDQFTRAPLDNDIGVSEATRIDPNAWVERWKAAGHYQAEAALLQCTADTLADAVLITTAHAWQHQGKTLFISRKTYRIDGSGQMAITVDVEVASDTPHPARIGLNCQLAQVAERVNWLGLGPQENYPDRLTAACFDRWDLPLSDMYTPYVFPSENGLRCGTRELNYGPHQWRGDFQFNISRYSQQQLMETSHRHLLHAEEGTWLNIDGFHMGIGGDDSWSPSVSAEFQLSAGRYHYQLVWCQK
T7 sequence (P41143 whole entry): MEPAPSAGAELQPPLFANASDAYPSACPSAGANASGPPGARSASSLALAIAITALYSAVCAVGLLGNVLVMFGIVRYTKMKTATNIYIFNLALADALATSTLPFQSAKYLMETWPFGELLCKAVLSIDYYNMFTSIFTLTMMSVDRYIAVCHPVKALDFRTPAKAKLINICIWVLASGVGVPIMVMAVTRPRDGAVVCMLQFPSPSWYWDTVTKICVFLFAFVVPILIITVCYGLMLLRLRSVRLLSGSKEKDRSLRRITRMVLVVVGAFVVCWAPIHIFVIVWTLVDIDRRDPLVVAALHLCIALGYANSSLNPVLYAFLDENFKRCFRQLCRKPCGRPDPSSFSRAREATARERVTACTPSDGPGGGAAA
T3 sequence (P41145 whole entry): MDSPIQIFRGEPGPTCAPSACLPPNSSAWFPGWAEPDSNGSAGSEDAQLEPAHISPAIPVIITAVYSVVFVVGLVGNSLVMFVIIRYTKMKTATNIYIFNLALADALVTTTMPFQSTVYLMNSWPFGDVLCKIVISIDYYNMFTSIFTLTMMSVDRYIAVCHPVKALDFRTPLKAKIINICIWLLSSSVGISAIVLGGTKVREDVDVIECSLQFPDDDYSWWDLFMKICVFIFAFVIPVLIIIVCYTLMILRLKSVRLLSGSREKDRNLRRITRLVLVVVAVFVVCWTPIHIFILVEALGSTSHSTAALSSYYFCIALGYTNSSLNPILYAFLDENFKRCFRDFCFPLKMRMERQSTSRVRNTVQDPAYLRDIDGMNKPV
Sequence of Keap1/Nrf2 (Q16236 whole entry): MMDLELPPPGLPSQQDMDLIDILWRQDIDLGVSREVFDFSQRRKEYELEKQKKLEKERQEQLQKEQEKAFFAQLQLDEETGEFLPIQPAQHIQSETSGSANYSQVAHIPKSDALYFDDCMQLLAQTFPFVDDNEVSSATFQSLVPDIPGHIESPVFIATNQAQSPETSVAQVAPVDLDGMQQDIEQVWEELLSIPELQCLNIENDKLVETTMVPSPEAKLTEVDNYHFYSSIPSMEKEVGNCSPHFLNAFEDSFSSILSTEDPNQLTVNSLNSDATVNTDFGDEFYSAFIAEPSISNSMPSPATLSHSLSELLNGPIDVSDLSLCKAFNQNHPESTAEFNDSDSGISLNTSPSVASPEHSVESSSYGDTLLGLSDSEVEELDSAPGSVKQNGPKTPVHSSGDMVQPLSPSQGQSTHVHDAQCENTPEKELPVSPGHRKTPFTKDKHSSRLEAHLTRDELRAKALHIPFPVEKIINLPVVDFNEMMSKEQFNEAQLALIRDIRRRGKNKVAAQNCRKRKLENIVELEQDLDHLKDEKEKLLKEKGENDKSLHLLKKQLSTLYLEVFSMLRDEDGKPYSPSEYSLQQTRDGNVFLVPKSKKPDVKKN
Sequence of Keap1/Nrf2 (Q14145 whole entry): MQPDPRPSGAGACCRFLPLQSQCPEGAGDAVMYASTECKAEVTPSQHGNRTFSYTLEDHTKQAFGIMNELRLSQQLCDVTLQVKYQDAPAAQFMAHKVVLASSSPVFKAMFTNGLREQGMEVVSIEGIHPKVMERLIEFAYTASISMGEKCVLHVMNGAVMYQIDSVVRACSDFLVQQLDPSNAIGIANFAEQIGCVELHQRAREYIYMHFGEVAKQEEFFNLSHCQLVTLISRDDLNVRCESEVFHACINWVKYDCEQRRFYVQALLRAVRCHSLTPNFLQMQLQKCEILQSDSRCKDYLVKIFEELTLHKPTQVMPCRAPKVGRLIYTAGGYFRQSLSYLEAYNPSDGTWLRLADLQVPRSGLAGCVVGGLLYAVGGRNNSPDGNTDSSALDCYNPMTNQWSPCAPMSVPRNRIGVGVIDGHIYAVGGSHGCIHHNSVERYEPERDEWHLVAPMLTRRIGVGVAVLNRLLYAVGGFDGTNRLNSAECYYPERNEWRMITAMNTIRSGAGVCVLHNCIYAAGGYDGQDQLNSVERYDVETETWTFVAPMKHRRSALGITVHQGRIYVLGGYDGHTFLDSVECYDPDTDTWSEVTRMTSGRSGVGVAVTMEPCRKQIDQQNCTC
Sequence of Mu-type opioid receptor (P35372 whole entry): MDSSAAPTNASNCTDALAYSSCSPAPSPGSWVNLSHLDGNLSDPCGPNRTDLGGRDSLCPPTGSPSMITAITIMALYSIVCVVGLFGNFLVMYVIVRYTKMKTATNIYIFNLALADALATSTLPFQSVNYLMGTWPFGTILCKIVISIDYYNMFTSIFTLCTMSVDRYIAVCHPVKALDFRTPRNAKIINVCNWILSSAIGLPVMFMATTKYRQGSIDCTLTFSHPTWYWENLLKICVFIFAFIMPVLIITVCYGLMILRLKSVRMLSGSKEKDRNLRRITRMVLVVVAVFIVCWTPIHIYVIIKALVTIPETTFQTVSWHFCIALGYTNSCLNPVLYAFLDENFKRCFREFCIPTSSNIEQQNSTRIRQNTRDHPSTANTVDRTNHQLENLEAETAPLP
Sequence of Paired box protein Pax-8 (Q06710 whole entry): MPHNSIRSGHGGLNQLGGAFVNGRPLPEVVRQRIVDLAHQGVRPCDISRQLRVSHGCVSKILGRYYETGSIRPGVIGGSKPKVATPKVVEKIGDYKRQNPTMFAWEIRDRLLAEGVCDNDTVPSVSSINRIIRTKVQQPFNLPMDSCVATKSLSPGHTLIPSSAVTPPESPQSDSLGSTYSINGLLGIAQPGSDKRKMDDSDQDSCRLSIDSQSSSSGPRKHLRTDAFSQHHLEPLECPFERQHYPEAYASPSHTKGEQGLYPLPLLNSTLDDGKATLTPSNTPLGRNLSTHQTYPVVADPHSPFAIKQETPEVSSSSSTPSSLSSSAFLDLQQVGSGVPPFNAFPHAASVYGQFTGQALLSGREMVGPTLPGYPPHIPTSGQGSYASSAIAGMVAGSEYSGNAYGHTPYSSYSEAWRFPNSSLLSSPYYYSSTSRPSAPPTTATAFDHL

CCN1C(=O)NC(=O)/C(=C\c2cn(CC(=O)N3CCCCC3)c3ccccc23)C1=O
AC50 (Keap1/Nrf2): 35.9 µM (active)

O=S(=O)([N-]c1nc2ccccc2nc1-[n+]1ccc(-c2ccncc2)cc1)c1ccccc1
AC50 (Keap1/Nrf2): 31.5 µM (active)
EC50 [1]: 55 µM (active)
EC50 [2]: > 53 µM (inactive)
EC50 (H4): > 120 µM (not active)
EC50 [3]: 9.78 µM (active)

CCS(=O)(=O)c1ncc(Cl)c(C(=O)Nc2ccc(S(=O)(=O)N(C)c3ccccc3)cc2)n1
IC50 [4]: 3.56 µM (active)
EC50 (BJ [5]): 5.62 µM (inconclusive)
IC50 [6]: 4.2 µM
EC50 [7]: 8.51 µM (active)
AC50 [8]: 21.2 µM (active)
EC50 (BJ [9]): 6.38 µM (inconclusive)
EC50 (Beta-galactosidase [10]): > 40 µM (inactive)
EC50 [11]: > 120 µM (not active)
IC50 [12]: 6.56 µM (active)
EC50 (Protein RecA): 1 µM (active)
AC50 (INS1): 5.7 µM (active)
EC50 [13]: 5.71 µM (active)
AC50 [14]: 10.7 µM (active)
EC50 (BJ [15]): 0.784 µM (active)
AC50 [16]: 1.91 µM (active)
AC50 [17]: 1.14 µM (active)
CC50 [18]: 10.6 µM (active)
EC50 [19]: 4.16 µM (active)
IC50 [20]: 59.5 µM (inactive)
IC50 (cells): > 50 µM (active)
EC50 (Mu-type opioid receptor): > 32 µM (inactive)
EC50 (Beta-galactosidase [21]): > 31.5 µM (inactive)
AC50 (Paired box protein Pax-8): 5.12 µM (active)
IC50 [22]: 9.44 µM (active)
EC50 [23]: > 32 µM (inactive)
AC50 [24]: 0.308 µM (active)
